The text below walks through data of patent US12344614B2, “Benzodiazepine derivatives as GABA a GAMMA1 PAM” (Hoffmann-La Roche Inc., priority 2021, dated 2025).

Like-named read-outs stand apart in the source and are kept apart here.

The target in test [1] is human GABAA α1β3γ2 receptor (Homo sapiens (Human), UniProt P14867+P18507). Put plainly: Radioligand binding assay, competition for [3H]Flumazenil, HEK293F cells. The following applies: for LogSel: Log[Ki α1β3γ2 (nM)/Ki α2β2γ1 (nM)]; for γ2/γ1 Selectivity Ratio: Ki α1β3γ2 (nM)/Ki α2β2γ1 (nM). The procedure: The affinity of compounds at GABAA γ2 subunit-containing receptors was measured by competition for [^3H]Flumazenil (81.1 Ci/mmol; Roche) binding to HEK293F cells expressing human (transiently transfected) receptors of composition α1β3γ2.
Harvested pellets from HEK293F cells expressing the different GABAA γ2 receptor subtypes were resuspended in Mannitol Buffer pH 7.2-7.4 and processed as described above for the cells expressing the GABAA γ1 subunit-containing receptors.
Assays were incubated to equilibrium for 1 hour at 4° C. and harvested onto GF/C uni-filters (Packard) by filtration using a Packard harvester and washing with ice-cold wash buffer (50 mM Tris; pH 7.5). After anhydrousing, filter-retained radioactivity was detected by liquid scintillation counting. Ki values were calculated using Excel-Fit (Microsoft) and are the means of two determinations.

In the next test the target is h-GABA-A α2β2γ1 receptor (Homo sapiens (Human), UniProt P47869+Q8N1C3). Put plainly: Two-electrode voltage clamp electrophysiology in Xenopus oocytes expressing GABAA receptors. Type of test: cell-based. The conditions noted are these: α2β2γ1 GABAA receptor subtype expressing oocytes, GABA EC20, reference PAMs. The procedure:
Xenopus laevis oocytes at maturation stages V-VI were used for the expression of cloned mRNA encoding GABAA receptor subunits. Oocytes ready for RNA micro-injection were bought from Ecocyte, Castrop-Rauxel, Germany and stored in modified Barth's medium (composition in mM: NaCl 88, KCl 1, NaHCO3 2.4, HEPES 10, MgSO4 0.82, CaNO3 0.33, CaCl2 0.33, pH=7.5) at 20° C. until the experiment.
Oocytes were plated in 96-well plates for microinjection using the Roboinject automated instrument (MultiChannelSystems, Reutlingen, Germany). Approximately 50 nL of an aqueous solution containing the RNA transcripts for the subunits of the desired GABAA receptor subtype was injected into each oocyte. […] Oocytes were kept in modified Barth's medium (composition in mM: NaCl 88, KCl 1, NaHCO3 4, HEPES 10, MgSO4 0.82, CaNO3 0.33, CaCl, 0.33, pH=7.5) at 20° C. until the experiment.
Electrophysiological experiments were performed using the Roboocyte instrument (MultiChannelSystems, Reutlingen, Germany) on days 3 to 5 after the micro-injection of mRNA. During the experiment the oocytes were constantly superfused by a solution containing (in mM) NaCl 90, KCl 1, HEPES 5, MgCl2 1, CaCl2 1 (pH 7.4). Oocytes were impaled by two glass microelectrodes (resistance: 0.5-0.8 MΩ) which were filled with a solution containing KCl 1M+K-acetate 1.5 M and voltage-clamped to −80 mV. The recordings were performed at room temperature using the Roboocyte two-electrode voltage clamp system (Multichannelsystem). After an initial equilibration period of 1.5 min GABA was added for 1.5 min at a concentration evoking approximately 20% of a maximal current response (EC2O). After another rest interval of 2.5 min GABA was again added evoking a response of similar amplitude and shape. […] Current traces were recorded at a digitization rate of 10 Hz during and shortly before and after the GABA application.
Each compound and concentration was tested on at least 3 oocytes. Different oocytes were used for different compound concentrations.
For the analysis, the digitized current traces of the first and second GABA response were superimposed and, if necessary, rescaled to equal maximal amplitudes. The ratio between the two responses during the time interval of test compound application was calculated point by point. The extremum of the resulting “ratio trace” was taken as the efficacy (“Fold increase”) of the compound expressed as “% modulation of GABA EC20” (100*(Fold increase−1)).

In test [2] the target is human GABAA α5β2γ1 receptor (Homo sapiens (Human), UniProt P31644+Q8N1C3). Put plainly: Radioligand binding assay, competition for [3H]RO7239181, membranes from HEK293F cells. The procedure: The affinity of compounds at GABAA γ1 subunit-containing receptors was measured by competition for [^3H]RO7239181 (67.3 Ci/mmol; Roche) binding to membranes from HEK293F cells (ThermoFisher R79007) expressing human (transiently transfected) receptors of composition α5β2γ1, α2β2γ1, α1β2γ1. For better protein expression of the α2 subunit-containing receptors, the 28 amino acid long signal peptide (Met1 to Ala28) of the human GABAA α2 subunit was substituted by the 31 amino acid long signal peptide (Met1 to Ser31) of human GABAA α5 subunit.
(§1) Harvested pellets from HEK293F cells expressing the different GABAA receptor subtypes were resuspended in Mannitol Buffer pH 7.2-7.4 (Mannitol 0.29M, Triethylamine 10 mM, Acetic acid 10 mM, EDTA 1 mM plus protease inhibitors (20 tablets Complete, Roche Diagnostics Cat. No. 05 056 489 001 per liter)), washed two times and then resuspended at 1:10 to 1:15 dilution in the same buffer. Cell disruption was performed by stirring the suspension in a Parr vessel #4637 at 435 psi for 15 minutes, and then the suspensions were centrifuged at 1000×g for 15 minutes at 4° C. (Beckman Avanti J-HC; rotor JS-4.2). The supernatant (S1) was transferred in a 21 Schott flask and the pellet (P1) was resuspended with Mannitol Buffer up to 175 ml. The resuspended pellet was transferred into a 250 ml Corning centrifugal beaker and centrifuged at 1500×g for 10 minutes at 4° C. (Beckman Avanti J-HC; rotor JS-4.2). The supernatant (S1) was then transferred in the 21 Schott flask and the pellet was discarded. The supernatants (S1) were centrifuged in 500 ml Beckman polypropylene centrifugal beaker at 15′000×g for 30 minutes at 4° C. (Beckman Avanti J-20 XP; rotor JLA-10.500). The pellet (P2) was resuspended with Mannitol Buffer 1:1 and frozen at −80° C. The supernatant (S2) was centrifuged in 100 ml Beckman polypropylene centrifugal tubes at 48000×g for 50 minutes at 4° C. (Beckman Avanti J-20 XP; rotor JA-18). The supernatant (S3) was discarded and the pellet (P3) was resuspended with 1:1 Mannitol Buffer. The P2 and P3 protein concentration was determined with the BIORAD Standard assay method with bovine serum albumin as standard and measured on the NANO-Drop 1000. The membrane suspension was aliquots (500 μl per tube) and stored at −80° C. until required.
(§2) Membrane homogenates were resuspended and polytronised (Polytron PT1200E Kinematica AG) in Potassium Phosphate 10 mM, KCl 100 mM binding buffer at pH 7.4 to a final assay concentration determined with a previous experiment.
Radioligand binding assays were carried out in a volume of 200 μL (96-well plates) which contained 100 μL of cell membranes, [^3H]RO7239181 at a concentration of 1.5 nM (α5β2γ1) or 20-30 nM (α1β2γ1, α2β2γ1) and the test compound in the range of [0.3-10000]×10^−9 M. Nonspecific binding was defined by 10×10^−6 (α5β2γ1) and 30×10^−6 M RO7239181 and typically represented less than 5% (α5β2γ1) and less than 20% (α1β2γ1, α2β2γ1) of the total binding. Assays were incubated to equilibrium for 1 hour at 4° C. and then, membranes were filtered onto unifilter (96-well white microplate with bonded GF/C filters preincubated 20-50 minutes in 0.3% Polyethylenimine) with a Filtermate 196 harvester (Packard BioScience) and washed 4 times with cold Potassium Phosphate 10 mM pH 7.4, KCl 100 mM binding buffer. After anhydrousing, filter-retained radioactivity was detected by liquid scintillation counting. Ki values were calculated using Excel-Fit (Microsoft) and are the means of two determinations.
Representative test results, obtained by the above described assay measuring binding affinity to HEK293 cells expressing human (h) receptors, are shown in the Table 1.

Test [3] has as its target human GABAA α2β2γ1 receptor (Homo sapiens (Human), UniProt P47869+Q8N1C3). The description is as above. The procedure:
The affinity of compounds at GABAA γ1 subunit-containing receptors was measured by competition for [^3H]RO7239181 (67.3 Ci/mmol; Roche) binding to membranes from HEK293F cells (ThermoFisher R79007) expressing human (transiently transfected) receptors of composition α5β2γ1, α2β2γ1, α1β2γ1.
as §1, §2
Assays were incubated to equilibrium for 1 hour at 4° C. and then, membranes were filtered onto unifilter (96-well white microplate with bonded GF/C filters preincubated 20-50 minutes in 0.3% Polyethylenimine) with a Filtermate 196 harvester (Packard BioScience) and washed 4 times with cold Potassium Phosphate 10 mM pH 7.4, KCl 100 mM binding buffer. After anhydrousing, filter-retained radioactivity was detected by liquid scintillation counting. Ki values were calculated using Excel-Fit (Microsoft) and are the means of two determinations.

Setting [4] is: read-out: Ki h-GABAA α2β2γ1, [3H]RO7239181 20-30 nM, HEK293F membranes, 1 hour at 4° C., mean of two determinations.

Regarding `Cc1ncc2n1-c1ccc(Cl)cc1C(c1ccccc1F)=NC2` [Midazolam, reference compound], the LogSel in test [1] was −2.2. Moreover, on h-GABA-A α2β2γ1 receptor, the “potentiation of the GABA-induced current” value is reported as around 60%.
The compound `Clc1ccc2c(c1)C(c1ccccc1)=NCc1nncn1-2` [Estazolam, reference compound] showed a LogSel in test [1] of −2.0.
With `Cc1nnc2n1-c1ccc(Cl)c(Cl)c1C(c1c(F)ccc(O)c1F)=N[C@H]2C` [Example 19, 2,4-difluoro-3-[(4S)-7,8-dichloro-1,4-dimethyl-4H-[1,2,4]triazolo[4,3-a][1,4]benzodiazepin-6-yl]phenol], the Ki in test [2] was 2.12 nM; in test [1], 33 nM; in test [3] it was 3.12 nM; in test [3] (setting [4]), 3.12 nM. The “γ2/γ1 Selectivity Ratio” value in test [1] is given as 10.6. Also, the LogSel in test [1] came out at 1.02.
In the case of `C[C@@H]1N=C(c2nc(O)ccc2F)c2c(ccc(C(F)(F)F)c2Cl)-n2cc(C(=O)NC3CC3)nc21` [Example 31, (4S)-7-chloro-N-cyclopropyl-6-(3-fluoro-6-hydroxy-2-pyridyl)-4-methyl-8-(trifluoromethyl)-4H-imidazo[1,2-a][1,4]benzodiazepine-2-carboxamide], the Ki in test [2] came out at 4.4 nM; in test [1] it was 12500 nM; in test [3], 15.6 nM; in test [3] (setting [4]), 15.6 nM. The “γ2/γ1 Selectivity Ratio” value in test [1] turned out to be 800.9. Further, the LogSel in test [1] is 2.90.
The compound `CN1C(=O)CN=C(c2cc(O)ccc2Cl)c2cc(Cl)ccc21` [RE-A, 7-chloro-5-(2-chloro-5-hydroxy-phenyl)-1-methyl-3H-1,4-benzodiazepin-2-one, reference compound] had a LogSel in test [1] of −0.27. Further, the Ki in test [3] ([3H]RO7239181 20-30 nM, HEK293F membranes, 1 hour at 4° C., mean of two determinations, read-out: Ki h-GABAA α2β2γ1) amounted to 2.8 nM.
For `Cc1nnc2n1-c1ccc(Cl)cc1C(c1ccccc1)=NC2` [Alprazolam, reference compound], the LogSel in test [1] is −2.3.
Turning to `CC(C)NC(=O)c1cn2c(n1)[C@H](C)N=C(c1nc(O)ccc1F)c1c-2ccc(C(F)(F)F)c1Cl` [Example 32, (4S)-7-chloro-6-(3-fluoro-6-hydroxy-2-pyridyl)-N-isopropyl-4-methyl-8-(trifluoromethyl)-4H-imidazo[1,2-a][1,4]benzodiazepine-2-carboxamide], the Ki in test [2] turned out to be 4.7 nM; in test [1], 8600 nM; in test [3], 10.8 nM; in test [3] (setting [4]), 10.8 nM. Moreover, the “γ2/γ1 Selectivity Ratio” value in test [1] stood at 796.0. In addition, the LogSel in test [1] was 2.90.
`Cc1nnc2n1-c1ccc(Cl)cc1C(c1ccccc1Cl)=NC2` [Triazolam, reference compound] displayed a LogSel in test [1] of −1.5. Besides, the “potentiation of the GABA-induced current” value on h-GABA-A α2β2γ1 receptor is around 60%.
`Cc1cn2c(n1)[C@H](C)N=C(c1nc(O)ccc1Cl)c1c-2ccc(C(F)(F)F)c1Cl` [Example 27, 5-chloro-6-[(4S)-7-chloro-2,4-dimethyl-8-(trifluoromethyl)-4H-imidazo[1,2-a][1,4]benzodiazepin-6-yl]pyridin-2-ol]: the Ki in test [2] is 2.8 nM; in test [1] it was 3550 nM; in test [3], 5.22 nM; in test [3] (setting [4]), 5.22 nM. In addition, the “γ2/γ1 Selectivity Ratio” value in test [1] was determined as 679.2. Further, in test [1], the LogSel is listed as 2.83.
With `CN1C(=O)CN=C(c2ccccc2F)c2cc([N+](=O)[O-])ccc21` [Flunitrazepam, reference compound], the “potentiation of the GABA-induced current” value at h-GABA-A α2β2γ1 receptor is recorded as around 60%.
On to `CN1C(=O)CN=C(c2cc(O)ccc2F)c2cc(Cl)ccc21` [RE-B, 7-chloro-5-(2-fluoro-5-hydroxy-phenyl)-1-methyl-3H-1,4-benzodiazepin-2-one, reference compound], for which, in test [1], the Ki is 1.1 nM, the “γ2/γ1 Selectivity Ratio” value came to 0.58 and the LogSel is −0.24. For the same compound, in test [3], the affinity, expressed as Ki, was 1.9 nM.

Broadly, the Ki is a dissociation constant, usually derived from enzyme kinetics or from competition with a known ligand.
